Measurements: patent US20210015793A1, “COMPOUNDS FOR TREATING CNS- AND NEURODEGENERATIVE DISEASES” (ETH ZURICH, priority 2018, published 2021)

Assays:
[1] = Serum concentration by HPLC in dogs after oral dosing; type: in vivo, dog; details: dogs
Procedure: (§1) Dog serum concentrations of Compound-1, Compound-1F and Compound-4 were determined with serum isolated from the blood of German shepherd dogs (age: 8-9 months) taken at different time points (2 h, 4 h, 6 h, 8, 10 h, 24 h) after oral drug intake. The steady-state serum concentrations of Compound-1, Compound-1F and Compound-4 were determined in mice with blood isolated at the end of the study by cardiac puncture. Serum proteins were removed by acetonitrile precipitation, and compounds were extracted by chloroform before separation on an HPLC-C18 column (Poroshell 120 EC-C18, Agilent) with an HPLC system (Agilent 1100 Series) and detection at OD 280 nm, for Compound-1 and Compound-1F. Detection of Compound-4 was performed at OD 310 nm. The same extraction method was also used to determine Compound-1F in the serum of healthy human research participants. Dog hematology and biochemical parameters were determined by the Center of Applied Analytical and Veterinary Studies, Cairo, Egypt. ECG and blood pressure were measured by Dr. Mohamed Elsaed, Electrocardiography Unit, Faculty of Veterinary Medicine, Cairo University. The study was approved by the ethical committee of the Center of Applied and Veterinary Studies, Cairo, Egypt. Clinical laboratory parameters of human research participants were determined by the Rabaa El Adaweya Medical Central Hospital, Cairo, Egypt.

[2] = 28-day repeated oral dosing safety in German shepherd dogs; type: in vivo, dog; details: dogs
Procedure: as §1

[3] = repeated oral dosing 28 days, 200 mg daily

Structure (SMILES): c1cc(-c2ccc3c(c2)OCO3)ncn1 [Compound-4, 4-(1,3-benzodioxol-5-yl)pyrimidine]
- dose dependence of peak serum levels at 2 h after drug intake ([1]; doses of 120 mg, 200 mg and 300 mg, 28 days): dose-dependent increase
- oral bioavailability ([1]; oral treatment): good oral bioavailability
- serum concentration at t=8 h after intake [1, 3]: undetectable
- time to peak serum level after drug intake [1, 3]: 2 h
- peak serum concentration ([1]; repeated oral dosing 28 days, daily dose of 200 mg): 0.56 ± 0.10 µg/mL
- blood pressure and heart rate before vs after drug intake ([2]; 28 days): not different
- clinical laboratory parameters ([2]; 28 days at 120, 200 and 300 mg per day): within the normal range
- tolerability ([2]; therapeutic dose range): excellent tolerability
